Patent publication US7851610B2, “Transporter protein” (Ajinomoto Co., Ltd., priority 2003, dated 2010)

T1: MHPH6 (Microbacterium maritypicum, UniProt D6R8X8)
T1 construct: expressed in transfected cells; host or cells: E. coli BLR transformed with pSHP11H (pTTQ18 derivative), IPTG-induced
T1 sequence (D6R8X8 with tags, fused parts or gaps): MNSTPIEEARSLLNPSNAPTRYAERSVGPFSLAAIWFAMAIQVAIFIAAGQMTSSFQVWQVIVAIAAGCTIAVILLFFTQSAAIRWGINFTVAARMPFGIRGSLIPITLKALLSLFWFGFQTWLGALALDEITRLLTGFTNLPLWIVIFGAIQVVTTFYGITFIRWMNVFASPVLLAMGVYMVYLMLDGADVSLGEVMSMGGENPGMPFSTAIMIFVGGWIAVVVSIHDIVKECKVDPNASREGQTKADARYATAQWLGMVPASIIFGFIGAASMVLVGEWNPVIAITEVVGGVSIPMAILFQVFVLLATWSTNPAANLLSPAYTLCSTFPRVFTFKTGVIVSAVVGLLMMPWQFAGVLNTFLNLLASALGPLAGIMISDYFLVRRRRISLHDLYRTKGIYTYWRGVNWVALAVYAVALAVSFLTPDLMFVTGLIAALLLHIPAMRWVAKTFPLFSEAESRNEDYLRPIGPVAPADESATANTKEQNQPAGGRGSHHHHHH

B1: MHPH6: MHP hydantoin transporter protein containing the RGSHis6-Tag at the C-terminal (SEQ ID No. 3/4) (protein)
chain: MNSTPIEEARSLLNPSNAPTRYAERSVGPFSLAAIWFAMAIQVAIFIAAGQMTSSFQVWQVIVAIAAGCTIAVILLFFTQSAAIRWGINFTVAARMPFGIRGSLIPITLKALLSLFWFGFQTWLGALALDEITRLLTGFTNLPLWIVIFGAIQVVTTFYGITFIRWMNVFASPVLLAMGVYMVYLMLDGADVSLGEVMSMGGENPGMPFSTAIMIFVGGWIAVVVSIHDIVKECKVDPNASREGQTKADARYATAQWLGMVPASIIFGFIGAASMVLVGEWNPVIAITEVVGGVSIPMAILFQVFVLLATWSTNPAANLLSPAYTLCSTFPRVFTFKTGVIVSAVVGLLMMPWQFAGVLNTFLNLLASALGPLAGIMISDYFLVRRRRISLHDLYRTKGIYTYWRGVNWVALAVYAVALAVSFLTPDLMFVTGLIAALLLHIPAMRWVAKTFPLFSEAESRNEDYLRPIGPVAPADESATANTKEQNQPAGGRGSHHHHHH
modifications: C-terminal RGSHis6 tag; RGSH6

How the values were obtained:
MHPH6 [1] = target: T1, MHPH6; assay: Substrate screening: competitive inhibition of 3H-L-BH uptake by E. coli BLR/pSHP11H; format: cell-based, Microbacterium liquefaciens AJ3912; conditions: for competitive inhibitory activity against L-BH uptake (in words): 250 μM cold candidate; for competitive inhibitory activity against L-BH uptake (in words) / uptake activity of 3H-L-BH (relative activity, no compound added = 100%): uptake after 3 minutes; for uptake activity of 3H-L-BH (relative activity, no compound added = 100%): 250 μM cold compound; for relative affinity for MHPH6 (affinity of L-BH = 1): curve-fitted assuming simple competitive inhibition, variety of concentrations
Experimental: 25 μM of ^3H-L-BH was employed as the RI-labeled substrate in the above-described reaction using intact cells, and a reaction liquid was prepared by adding 250 μM of a candidate substrate (cold). The uptake amount of ^3H-L-BH after 3 minutes from the addition thereof was compared with the amount without the candidate substrate, to calculate the competitive inhibitory activity of each candidate substrate against L-BH, for evaluating the potentiality of each candidate substance as the substrate for MHP.
Affinity of a variety of compounds to MHPH6 was measured based on the competitive inhibitory activity thereof against L-BH uptake by E. coli BLR/pSHP11H, to search for substrates for MHPH6 (FIG. 8). […] When the four compounds showing strong inhibitive activity were added, the uptake activities of ^3H-L-BH (the relative activity with respect to when not adding any compound as 100%) were 7% (L-BH, theoretical value 9%), 47% (D-BH), 3% (L-IMH) and 24% (D- IMH).
The competitive inhibition experiments were carried out, as for substrate screening, with a variety of substrate concentrations. As a result, the affinity of D- and L-BH and D- and L-IMH for MHPH6 was different from one another, and the intensity of the affinity was in the order of L-IMH (solid triangle), L-BH (solid circle), D-IMH (open triangle) and D-BH (open circle) from the strongest. Assuming that ^3H-L-BH and the added cold compound were under simple competitive inhibition, the experimental results were curve-fitted. As a result, the relative affinity for each compound was calculated to be 5.32 (L-IMH), 1.05 (L-BH, experimental value), 0.96 (D-IMH), and 0.20 (D-BH), with respect to the affinity of L-BH and MHPH6 being 1.

MHPH6 [2] = target: T1, MHPH6; assay: Uptake assay using intact cells of E. coli BLR/pSHP11H (RI-labelled substrate); format: cell-based; conditions: for initial uptake rate / uptake amount 5 minutes after the addition of the substrate: induced E. coli BLR/pSHP11H, 25 μM substrate; for initial uptake rate: data at 15 seconds after substrate addition; for uptake amount 5 minutes after the addition of the substrate: pH 6.6, 25° C., per dry cell weight
Description: The activity of the hydantoin transporter can be measured by an uptake assay using intact cells. The uptake assay using intact cells may be carried out in accordance with the method of West, and Henderson (I. C. West (1970) Lactose transport coupled to proton movements in Escherichia coli, Biochem. Biophys. Res. Commun. 41: 655-661; P. J. F. Henderson and A. J. S. Macpherson (1986), Assay, genetics, proteins, and reconstitution of proton-linked galactose, arabinose, and xylose transport systems of Escherichia coli, Methods Enzymol. 125: 387-429).
Specifically, the uptake reaction may be carried out by adding an RI-labelled substrate (^3H—BH (benzyl hydantoin), ^3H—IMH (indolylmethyl hydantoin)) to a suspension of the cells that express the hydantoin transporter. After initiating the reaction, sampling may be conducted at time intervals. Immediately after sampling, each aliquot may be collected by a filter of 0.45 μm pore size (preincubated in a washing liquid of 150 mM KCl, 5 mM MES (pH 6.6)) and washed thoroughly by the rinsing liquid. Thereafter, by measuring radioactivity remaining on the filter with a liquid scintillation counter, the substrate uptaken into the cells is quantified, and the hydantoin-transporter activity can be determined.
The methods of West (I. C. West (1970), Lactose transport coupled to proton movements in Escherichia coli. Biochem. Biophys. Res. Commun. 41: 655-661.) and Henderson (P. J. F. Henderson and A. J. S. Macpherson (1986), Assay, genetics, proteins, and reconstitution of proton-linked galactose, arabinose, and xylose transport systems of Escherichia coli, Methods Enzymol. 125: 387-429.) were employed.
The collected cells were washed three times with 150 mM KCl, 5 mM MES (2-[N-Morpholino]ethanesulphonic acid) (pH 6.6) and were then used in the assay. The basic reaction conditions included uptake initiation by adding glycerol to a final concentration of 20 mM to a cell suspension having an absorbance at about A680 of approximately 2 to 4, followed by aeration at 25° C. for 3 minutes, and then addition of an RI-labelled substrate (relative RI activity: ^3H—BH 107 Bq/nmol, ^3H—IMH 241 Bq/nmol) to a final concentration of 25 μM. After the onset of the reaction (aeration was continued), sampling was done over time. Immediately after the sampling, each aliquot was passed through a filter with a pore size of 0.45 μm (pre-incubated in a washing solution of 150 mM KCl and 5 mM MES (pH 6.6)) which was then washed sufficiently with a washing solution. The radiation remaining on the filter was measured by a liquid scintillation counter. The uptake activity was expressed in terms of the dry cell weight that was calculated by taking the absorbance A680=1 as the dry cell concentration of 0.68 mg/ml (Ashworth and Kornberg, Biological Science, 165(999):179-188 (1966)). Furthermore, the initial uptake rate was calculated based on the data obtained at 15 seconds after the addition of substrate, and expressed in terms of the uptake amount per minute.
In the measurement of the inhibitory activity of the inhibitor, the inhibitor was added at the time of onset of aeration. That is, it was pre-incubated with the cells for 3 minutes prior to the substrate addition. The inhibitor used was 2,4-dinitrophenol (DNP), and the final concentration during the reaction was 20 mM.
For varying the pH of the reaction liquid, 10 mM potassium acetate (pH 4.0), 5 mM MES (pH 4.9, 6.1, 6.6, 7.1, 7.9), 10 mM Tris-HCl (pH 8.0) and 10 mM glycin-NaOH (pH 10.0) were used when appropriate.

[3] = CD spectroscopy heat stability of purified MHPH6; format: physicochemical
Experimental: The buffer solution suspending the purified MHPH6 was replaced by 10 mM sodium phosphate (pH 7.6) with 0.05% (w/v) DDM, using an ultrafiltration apparatus (Centricon C50, Millipore). In this buffer solution, the protein concentration was adjusted to 50 μg/ml, and the CD spectroscopy was carried out at 10° C. (JASCO J-715 Spectropolarimeter). The measurement was performed at a wavelength ranging from 190 to 260 nm, and the average value of twenty measurements was taken. Furthermore, the change in the secondary structure of MHPH6 (heat stability) was observed by measuring the change of the CD unit value at a wavelength of 222 nm as the temperature of the sample was varied from 10° C.→90° C.→10° C. (the temperature change was made 10° C. at a time, and the length of time at each temperature was approximately 10 minutes).

[4] = CD at 222 nm, 10 mM sodium phosphate pH 7.6, 0.05% DDM

Row | Molecule | competitive inhibitory activity against L-BH uptake (in words) (MHPH6 [1]; 25 μM 3H-L-BH) | uptake activity of 3H-L-BH (relative activity, no compound added = 100%) (MHPH6 [1]; 25 μM 3H-L-BH) [%] | relative affinity for MHPH6 (affinity of L-BH = 1) (MHPH6 [1]) | other results
1 | CC(C)C1NC(=O)NC1=O (racemic) [5-DL-isopropyl hydantoin] | Weaker inhibitory activity | – | – | –
2 | NC(=O)NC1NC(=O)NC1=O (centres unmarked) [allantoin, reference compound] | did not result in any inhibition | – | – | –
3 | CC(C)CC1NC(=O)NC1=O (racemic) [5-DL-isobutyl hydantoin] | Weaker inhibitory activity | – | – | –
4 | O=[N+]([O-])c1ccc(O)c([N+](=O)[O-])c1 [DNP, 2,4-dinitrophenol, reference compound] | – | – | – | effect on L-IMH uptake, induced sample (MHPH6 [2]; DNP 20 mM, pre-incubated 3 minutes, induced sample): decreased the amount of L-IMH uptake; effect on L-IMH uptake, uninduced sample (MHPH6 [2]; DNP 20 mM, pre-incubated 3 minutes, uninduced sample): substantially no effect
5 | O=C1NC(=O)[C@H](Cc2c[nH]c3ccccc23)N1 [L-IMH, 5-L-indolylmethyl hydantoin] | strong activity of competitive inhibition | 3 | 5.32 | initial uptake rate (MHPH6 [2]): 2.5 nmol/mg/min; uptake amount 5 minutes after the addition of the substrate (MHPH6 [2]): 0.91 nmol/mg; initial uptake rate as compared with the initial rate at pH 6.6 (MHPH6 [2]; pH 4.0): approximately 10%; initial uptake rate as compared with the initial rate at pH 6.6 (MHPH6 [2]; pH 10.0): approximately 10%; pH at which initial uptake rate is maximal (MHPH6 [2]; pH varied between 4.0 and 10.0, induced and uninduced samples): 6.6; initial uptake rate, L-IMH relative to L-BH (MHPH6 [2]; ratio L-IMH / L-BH): 3.9 times; uptake amount 5 minutes after addition of substrate, L-IMH relative to L-BH (MHPH6 [2]; ratio L-IMH / L-BH): 3.4 times; affinity relative to that of L-BH (estimated) (MHPH6 [1]; L-IMH versus L-BH): approximately 5 times
6 | CC(C)[C@@H]1NC(=O)NC1=O [5-L-isopropyl hydantoin] | Weaker inhibitory activity | – | – | –
7 | O=C1NC(=O)C(Cc2ccccc2)N1 [L-BH, 5-L-benzyl hydantoin] | strong activity of competitive inhibition | 7 | 1.05 | initial uptake rate (MHPH6 [2]): 0.64 nmol/mg/min; uptake amount 5 minutes after the addition of the substrate (MHPH6 [2]): 0.27 nmol/mg; uptake activity of 3H-L-BH, theoretical value (MHPH6 [1]; 250 μM cold L-BH, 25 μM 3H-L-BH): 9%
8 | O=C1NC(=O)[C@@H](Cc2c[nH]c3ccccc23)N1 [D-IMH] | strong activity of competitive inhibition | 24 | 0.96 | –
9 | CC1NC(=O)NC1=O (racemic) [5-DL-methyl hydantoin] | Weaker inhibitory activity | – | – | –
10 | CC(C)C[C@@H]1NC(=O)NC1=O [5-L-isobutyl hydantoin] | Weaker inhibitory activity | – | – | –
11 | O=C1NC(=O)C(Cc2ccc(O)cc2)N1 (racemic) [5-DL-p-hydroxybenzyl hydantoin] | Weaker inhibitory activity | – | – | –
12 | O=C1NC(=O)[C@@H](Cc2ccccc2)N1 [D-BH] | strong activity of competitive inhibition | 47 | 0.20 | –
13 | B1 | – | – | – | temperature at which higher structure began to be destroyed [3, 4]: ≥ 30 °C; temperature at which higher structure was almost completely destroyed [3, 4]: 70 °C; reversibility of thermal denaturation ([3]; temperature 10→90→10° C.): irreversible
